Test results taken from ChEMBL document CHEMBL5512598, “Current advances and development strategies of orally bioavailable PROTACs” (Eur J Med Chem, 2023).
Values belong to the molecule of their own block, whether it stands above or below them.

How the values were obtained:
[1] = AUC (0 to t) in C57BL/6 mouse at 30 mg/kg, po by LC-MS/MS analysis; type: ADME, organism-based; settings: in vivo
[2] = Cmax in C57BL/6 mouse at 30 mg/kg, po by LC-MS/MS analysis; type: ADME, organism-based; settings: in vivo
[3] = Tmax in C57BL/6 mouse at 30 mg/kg, po by LC-MS/MS analysis; type: ADME, organism-based; settings: in vivo
[4] = Half life in C57BL/6 mouse at 30 mg/kg, po by LC-MS/MS analysis; type: ADME, organism-based; settings: in vivo
[5] = Oral bioavailability in rat at 5 mg/kg by LC-MS/MS analysis; type: ADME, organism-based; settings: in vivo
[6] = Oral bioavailability in mouse at 5 mg/kg by LC-MS/MS analysis; type: ADME, organism-based; settings: in vivo
[7] = Oral bioavailability in BALB/c mouse at 30 mg/kg measured for 24 hrs by UPLC-MS/MS analysis; type: ADME, organism-based; settings: in vivo
[8] = Tmax in BALB/c mouse at 30 mg/kg measured for 24 hrs by UPLC-MS/MS analysis; type: ADME, organism-based; settings: in vivo
[9] = Cmax in BALB/c mouse at 30 mg/kg measured for 24 hrs by UPLC-MS/MS analysis; type: ADME, organism-based; settings: in vivo
[10] = AUC (0 to t) in BALB/c mouse at 30 mg/kg measured for 24 hrs by UPLC-MS/MS analysis; type: ADME, organism-based; settings: in vivo
[11] = Oral bioavailability in C57BL/6 mouse at 30 mg/kg by LC-MS/MS analysis; type: ADME, organism-based; settings: in vivo
[12] = molecular target: von Hippel-Lindau disease tumor suppressor/Bromodomain-containing protein 9 (Homo sapiens, UniProt Q9H8M2+P40337); assay: PROTAC activity at VHL/BRD9 in human HeLa cells assessed as induction of protein degradation […]; type: cell-based
[13] = Clearance in Sprague-Dawley rat at 0.5 mg/kg, iv; type: ADME, organism-based; settings: in vivo
[14] = Oral bioavailability in Sprague-Dawley rat at 5 mg/kg incubated for 24 hrs by LC-MS/MS analysis; type: ADME, organism-based; settings: in vivo
[15] = molecular target: Cytochrome P450 3A4 (Homo sapiens, UniProt P08684); assay: Inhibition of CYP3A4 (unknown origin); type: ADME
[16] = Clearance in mouse at 10 mg/kg, po measured upto 24 hrs by LC-MS/MS analysis; type: ADME, organism-based; settings: in vivo
[17] = molecular target: Cytochrome P450 2C19 (Homo sapiens, UniProt P33261); assay: Inhibition of CYP2C19 (unknown origin); type: ADME
[18] = Oral bioavailability in ICR mouse at 5 mg/kg by LC-MS/SM analysis; type: ADME, organism-based; settings: in vivo
[19] = molecular target: Voltage-gated inwardly rectifying potassium channel KCNH2 (Homo sapiens, UniProt Q12809); assay: Inhibition of hERG (unknown origin); type: toxicity
[20] = molecular target: Cytochrome P450 2D6 (Homo sapiens, UniProt P10635); assay: Inhibition of CYP2D6 (unknown origin); type: ADME
[21] = molecular target: T1, Protein cereblon/Tyrosine-protein kinase BTK (Homo sapiens, UniProt Q06187+Q96SW2, C481S); assay: PROTAC activity at CRBN/BTK C481S mutant in human DLBCL cells assessed as degradation of BTK protein incubated for 4 hrs by HTRF assay; type: cell-based
[22] = molecular target: T2, Protein cereblon/Leucine-rich repeat serine/threonine-protein kinase 2 (Homo sapiens, UniProt Q5S007+Q96SW2); assay: PROTAC activity at CRBN/LRRK2 in human MOLT-4 cells assessed as induction of LRRK2 degradation at 1 uM by Western blot analysis relative to control; type: cell-based
Target sequence in this assay (Q5S007 whole entry, looked up): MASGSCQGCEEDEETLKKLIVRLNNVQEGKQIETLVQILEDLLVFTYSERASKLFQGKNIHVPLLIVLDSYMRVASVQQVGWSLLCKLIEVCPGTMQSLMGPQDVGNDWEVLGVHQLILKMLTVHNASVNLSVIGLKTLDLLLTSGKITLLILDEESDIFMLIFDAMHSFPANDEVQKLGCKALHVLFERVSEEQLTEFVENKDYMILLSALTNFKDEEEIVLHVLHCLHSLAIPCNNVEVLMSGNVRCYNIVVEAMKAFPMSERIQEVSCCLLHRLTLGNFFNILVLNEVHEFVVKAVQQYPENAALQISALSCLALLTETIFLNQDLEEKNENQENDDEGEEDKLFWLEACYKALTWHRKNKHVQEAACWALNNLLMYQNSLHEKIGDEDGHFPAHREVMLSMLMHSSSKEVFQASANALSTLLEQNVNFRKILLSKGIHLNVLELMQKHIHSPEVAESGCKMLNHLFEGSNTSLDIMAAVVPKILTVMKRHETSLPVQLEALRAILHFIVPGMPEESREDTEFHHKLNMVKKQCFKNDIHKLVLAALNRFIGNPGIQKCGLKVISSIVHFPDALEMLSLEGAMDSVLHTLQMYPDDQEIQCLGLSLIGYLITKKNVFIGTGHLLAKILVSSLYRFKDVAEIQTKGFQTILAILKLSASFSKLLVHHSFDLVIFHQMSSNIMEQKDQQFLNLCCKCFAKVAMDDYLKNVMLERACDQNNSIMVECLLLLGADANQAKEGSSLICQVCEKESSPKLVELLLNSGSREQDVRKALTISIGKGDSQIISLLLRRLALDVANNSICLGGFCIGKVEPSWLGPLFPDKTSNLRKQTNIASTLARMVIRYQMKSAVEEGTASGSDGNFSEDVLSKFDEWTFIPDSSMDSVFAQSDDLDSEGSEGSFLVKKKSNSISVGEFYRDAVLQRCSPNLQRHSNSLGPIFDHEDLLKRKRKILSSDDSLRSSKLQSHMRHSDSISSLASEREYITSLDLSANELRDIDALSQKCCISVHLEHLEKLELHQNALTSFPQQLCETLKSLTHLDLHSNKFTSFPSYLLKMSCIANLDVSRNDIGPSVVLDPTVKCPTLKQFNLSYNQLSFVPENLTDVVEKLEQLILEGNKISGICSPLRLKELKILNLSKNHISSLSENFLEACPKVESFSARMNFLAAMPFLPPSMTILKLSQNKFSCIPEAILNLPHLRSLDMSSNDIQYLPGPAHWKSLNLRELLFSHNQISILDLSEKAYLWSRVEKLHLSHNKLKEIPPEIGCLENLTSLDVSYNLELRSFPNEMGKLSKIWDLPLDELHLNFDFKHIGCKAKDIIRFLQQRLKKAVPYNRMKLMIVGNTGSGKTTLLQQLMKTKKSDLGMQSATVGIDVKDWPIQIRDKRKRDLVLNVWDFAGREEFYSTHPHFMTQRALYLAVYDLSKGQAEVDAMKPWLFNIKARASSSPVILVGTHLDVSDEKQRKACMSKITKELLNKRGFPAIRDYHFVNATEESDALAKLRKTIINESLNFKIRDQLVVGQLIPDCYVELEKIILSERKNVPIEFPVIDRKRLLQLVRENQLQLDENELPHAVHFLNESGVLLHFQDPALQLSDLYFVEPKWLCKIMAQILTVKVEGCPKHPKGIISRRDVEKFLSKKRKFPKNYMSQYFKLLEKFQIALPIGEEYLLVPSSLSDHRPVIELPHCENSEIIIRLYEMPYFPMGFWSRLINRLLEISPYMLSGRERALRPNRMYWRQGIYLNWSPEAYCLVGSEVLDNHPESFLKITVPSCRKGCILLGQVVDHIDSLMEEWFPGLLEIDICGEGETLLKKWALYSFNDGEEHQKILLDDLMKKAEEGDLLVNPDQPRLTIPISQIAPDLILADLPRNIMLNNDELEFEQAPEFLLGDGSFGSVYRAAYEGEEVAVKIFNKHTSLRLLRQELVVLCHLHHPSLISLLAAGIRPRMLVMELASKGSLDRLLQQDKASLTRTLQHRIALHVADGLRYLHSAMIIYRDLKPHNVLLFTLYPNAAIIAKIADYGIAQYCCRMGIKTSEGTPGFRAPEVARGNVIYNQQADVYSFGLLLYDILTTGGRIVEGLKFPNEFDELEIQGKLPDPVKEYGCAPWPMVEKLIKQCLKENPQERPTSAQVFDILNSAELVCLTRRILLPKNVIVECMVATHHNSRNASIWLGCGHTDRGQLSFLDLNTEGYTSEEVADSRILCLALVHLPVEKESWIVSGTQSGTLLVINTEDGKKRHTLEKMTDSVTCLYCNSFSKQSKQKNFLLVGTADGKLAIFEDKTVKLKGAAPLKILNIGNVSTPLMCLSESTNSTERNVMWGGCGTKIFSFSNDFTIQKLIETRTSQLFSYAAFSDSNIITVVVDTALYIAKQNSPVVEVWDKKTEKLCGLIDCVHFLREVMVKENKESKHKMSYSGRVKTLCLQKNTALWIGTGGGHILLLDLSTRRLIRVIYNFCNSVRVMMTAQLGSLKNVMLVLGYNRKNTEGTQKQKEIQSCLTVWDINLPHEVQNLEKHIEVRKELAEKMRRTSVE
Target sequence in this assay (Q96SW2 whole entry, looked up): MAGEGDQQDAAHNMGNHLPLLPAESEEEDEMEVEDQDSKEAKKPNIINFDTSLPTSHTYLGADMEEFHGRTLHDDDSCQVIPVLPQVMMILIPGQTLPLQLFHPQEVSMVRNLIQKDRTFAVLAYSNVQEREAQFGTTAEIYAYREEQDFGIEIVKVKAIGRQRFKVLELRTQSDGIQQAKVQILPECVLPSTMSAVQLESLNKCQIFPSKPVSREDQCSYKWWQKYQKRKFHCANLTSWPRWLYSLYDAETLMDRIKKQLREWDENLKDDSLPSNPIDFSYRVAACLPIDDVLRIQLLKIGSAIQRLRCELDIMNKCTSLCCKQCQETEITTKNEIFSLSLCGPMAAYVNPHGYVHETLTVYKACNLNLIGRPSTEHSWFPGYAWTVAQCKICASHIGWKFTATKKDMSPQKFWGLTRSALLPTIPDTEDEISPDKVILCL

[23] = molecular target: T3, Protein cereblon/Tyrosine-protein kinase BTK (Homo sapiens, UniProt Q06187+Q96SW2); assay: PROTAC activity at CRBN/BTK in human TMD8 cells assessed as maximal degradation of BTK protein incubated for 24 hrs by immunoblotting analysis relative to control; type: cell-based
Target sequence in this assay (Q06187 2-659 limits assumed): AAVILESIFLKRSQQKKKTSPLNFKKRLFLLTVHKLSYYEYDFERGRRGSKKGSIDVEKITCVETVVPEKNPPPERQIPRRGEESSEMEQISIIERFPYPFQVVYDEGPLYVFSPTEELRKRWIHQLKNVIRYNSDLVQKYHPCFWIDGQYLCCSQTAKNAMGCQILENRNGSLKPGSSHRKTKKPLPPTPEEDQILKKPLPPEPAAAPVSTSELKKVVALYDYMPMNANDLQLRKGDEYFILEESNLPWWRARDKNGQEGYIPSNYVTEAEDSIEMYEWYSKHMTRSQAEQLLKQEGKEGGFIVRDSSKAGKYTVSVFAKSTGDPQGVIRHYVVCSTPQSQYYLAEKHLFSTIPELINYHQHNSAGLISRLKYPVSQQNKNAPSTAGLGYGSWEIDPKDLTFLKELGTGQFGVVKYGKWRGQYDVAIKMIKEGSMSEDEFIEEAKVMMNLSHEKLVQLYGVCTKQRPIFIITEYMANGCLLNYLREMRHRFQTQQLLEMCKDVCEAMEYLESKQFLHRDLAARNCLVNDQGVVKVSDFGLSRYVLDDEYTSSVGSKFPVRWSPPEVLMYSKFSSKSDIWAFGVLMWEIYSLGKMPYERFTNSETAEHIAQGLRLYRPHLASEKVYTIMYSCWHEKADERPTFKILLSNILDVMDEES
Target sequence in this assay (Q96SW2 whole entry partner): as the sequence (Q96SW2 whole entry, looked up) above

[24] = molecular target: T3, Protein cereblon/Tyrosine-protein kinase BTK; assay: PROTAC activity at CRBN/BTK in human TMD8 cells assessed as induction of BTK degradation incubated for 24 hrs by immunoblotting analysis; type: cell-based
[25] = molecular target: T1, Protein cereblon/Tyrosine-protein kinase BTK; assay: PROTAC activity at CRBN/BTK C481S mutant in human TMD8 cells assessed as degradation of BTK protein incubated for 4 hrs by HTRF assay; type: cell-based
[26] = Oral bioavailability in mouse; type: ADME, organism-based; settings: in vivo
[27] = Cmax in mouse at 10 mg/kg, po measured upto 24 hrs by LC-MS/MS analysis; type: ADME, organism-based; settings: in vivo
[28] = molecular target: T2, Protein cereblon/Leucine-rich repeat serine/threonine-protein kinase 2; assay: PROTAC activity at CRBN/LRRK2 in human MOLT-4 cells assessed as induction of LRRK2 degradation incubated for 48 hrs by Western blot analysis; type: cell-based
Target sequence in this assay (Q5S007 whole entry): as the sequence (Q5S007 whole entry, looked up) above
Target sequence in this assay (Q96SW2 whole entry): as the sequence (Q96SW2 whole entry, looked up) above

T1 sequence (Q06187 2-659 C481S limits assumed, stated change not applied): as the sequence (Q06187 2-659 limits assumed) above, with C480S counted along it
T1 sequence (Q96SW2 whole entry, stated change not applied): as the sequence (Q96SW2 whole entry, looked up) above
Sequence of Cytochrome P450 3A4 (P08684 whole entry): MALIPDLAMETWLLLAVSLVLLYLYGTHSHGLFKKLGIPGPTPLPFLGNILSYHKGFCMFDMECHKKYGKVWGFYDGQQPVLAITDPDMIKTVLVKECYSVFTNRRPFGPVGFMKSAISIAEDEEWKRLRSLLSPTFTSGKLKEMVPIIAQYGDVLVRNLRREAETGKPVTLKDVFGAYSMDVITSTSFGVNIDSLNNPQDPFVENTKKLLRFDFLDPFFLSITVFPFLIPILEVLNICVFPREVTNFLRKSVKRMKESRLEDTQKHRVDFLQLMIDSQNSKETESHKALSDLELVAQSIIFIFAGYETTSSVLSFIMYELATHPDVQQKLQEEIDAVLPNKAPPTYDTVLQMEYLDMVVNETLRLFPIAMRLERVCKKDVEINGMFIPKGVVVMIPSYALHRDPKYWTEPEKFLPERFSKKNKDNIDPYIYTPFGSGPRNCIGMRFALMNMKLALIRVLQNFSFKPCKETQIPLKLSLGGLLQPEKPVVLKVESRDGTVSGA
Sequence of Cytochrome P450 2C19 (P33261 whole entry): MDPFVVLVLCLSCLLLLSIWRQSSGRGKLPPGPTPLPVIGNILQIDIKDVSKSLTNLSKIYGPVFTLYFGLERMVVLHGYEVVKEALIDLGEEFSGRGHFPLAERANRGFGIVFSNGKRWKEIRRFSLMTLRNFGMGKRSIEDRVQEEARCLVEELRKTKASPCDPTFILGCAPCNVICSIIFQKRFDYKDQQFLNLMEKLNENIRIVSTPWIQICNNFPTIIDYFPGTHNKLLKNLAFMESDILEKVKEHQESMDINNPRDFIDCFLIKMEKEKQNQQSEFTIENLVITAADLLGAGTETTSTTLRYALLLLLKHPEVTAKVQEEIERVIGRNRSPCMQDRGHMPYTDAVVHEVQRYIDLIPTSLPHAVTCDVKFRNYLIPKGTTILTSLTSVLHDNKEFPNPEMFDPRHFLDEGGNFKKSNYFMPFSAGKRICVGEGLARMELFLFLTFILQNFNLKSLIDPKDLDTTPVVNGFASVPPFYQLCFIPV

- AUC(0-t) [1]: 5000 ng·h/mL
- Cmax [2]: 470 ng/mL
- Tmax [3]: 8 h
- half-life [4]: 5.1 h
Structure (SMILES): Cc1ncsc1-c1ccc(CNC(=O)[C@@H]2C[C@@H](O)CN2C(=O)[C@@H](NC(=O)CCCCCCCCCCNC(=O)OC2C[C@@H](C)C=C3C=C[C@H](C)[C@H](CC[C@@H]4C[C@H](O)CC(=O)O4)[C@H]32)C(C)(C)C)cc1 (stereo partly drawn)

- bioavailability [5]: 23.8%
- bioavailability [6]: 37.9%
Structure (SMILES): N#Cc1ccc(O[C@H]2CC[C@H](NC(=O)c3ccc(N4CCC(CN5CCN(c6cc7c(cc6F)C(=O)N(C6CCC(=O)NC6=O)C7=O)CC5)CC4)nn3)CC2)cc1Cl (stereo partly drawn) [BAVDEGALUTAMIDE]

- bioavailability [7]: 23%
- Tmax [8]: 1.67 h
- Cmax [9]: 7060 ng/mL
- AUC(0-t) at 24 h [10]: 18000 ng·h/mL
Structure (SMILES): Cc1ncsc1-c1ccc(CNC(=O)[C@@H]2C[C@@H](O)CN2C(=O)[C@@H](NC(=O)COCCCCOc2ccc(C3CCN(C4=Nn5c(nnc5C(F)(F)F)CC4)CC3)cc2)C(C)(C)C)cc1

- AUC(0-t) [1]: 21300 ng·h/mL
- Cmax [2]: 3620 ng/mL
- bioavailability [11]: 15%
- Tmax [3]: 2 h
- half-life [4]: 21.9 h
Structure (SMILES): CNc1nc(Nc2ccc(C(=O)N3CCN(C[C@H]4CC[C@H](CSC(C)(C)[C@H](NC(=O)C5(F)CC5)C(=O)N5C[C@H](O)C[C@H]5C(=O)NCc5ccc(-c6scnc6C)cc5)CC4)CC3)cc2OC)ncc1Cl

- DC50 [12]: 11 nM
- clearance [13]: 74 mL/min/kg
- bioavailability [14]: 48%
- IC50 [15]: 5600 nM
- CL/F [16]: 30 mL/min/kg
- IC50 [17]: 1900 nM
- bioavailability [18]: 100%
- IC50 [20]: > 30000 nM
Structure (SMILES): COc1cc(-c2cn(C)c(=O)c3cnccc23)cc(Cl)c1CN1CCC(C2CCN(C(=O)c3ccc(NC4CCC(=O)NC4=O)cc3C(F)(F)F)CC2)CC1 (stereo not drawn)
- IC50 [19]: 7500 nM

Structure (SMILES): CN1CCN([C@@H]2CCCN(c3cnc(C(N)=O)c(Nc4ccc(C5CCN(CC6CCN(c7ccc(C(=O)N[C@H]8CCC(=O)NC8=O)nc7)CC6)CC5)cc4)n3)C2)C1=O [NX-5948]
- DC50 [21]: 0.32 nM

- Emax [22]: 44%
Structure (SMILES): C[C@@H]1C=C2C=C[C@@H](C)[C@@H](CC[C@@H]3C[C@@H](O)CC(=O)O3)[C@@H]2[C@H](OC(=O)NCCOCCOCCNc2cccc3c2C(=O)N(C2CCC(=O)NC2=O)C3=O)C1 (stereo partly drawn)

Structure (SMILES): NC(=O)c1ncc(N2CCCCC2)nc1Nc1ccc(C2CCN(C[C@@H]3CCN(c4ccc5c(c4)C(=O)N(C4CCC(=O)NC4=O)C5=O)C3)CC2)cc1 (stereo partly drawn)
- Emax [23]: 86%
- DC50 [24]: 4.5 nM
- DC50 [25]: 13 nM
- bioavailability [26]: 8%
- Cmax [27]: 1300 nM

- DC50 [28]: 120 nM
- Emax [22]: 65%
Structure (SMILES): Cc1ncsc1-c1ccc(CNC(=O)[C@@H]2C[C@@H](O)CN2C(=O)[C@@H](NC(=O)CCCCCCCCCCNC(=O)OC2C[C@@H](C)C=C3C=C[C@H](C)[C@H](CC[C@@H](O)C[C@H](O)CC(=O)O)[C@H]32)C(C)(C)C)cc1 (stereo partly drawn)
